Assays:
DPP-IV [1] = test: Dipeptidyl Peptidase IV (DPP-IV) digestion, stability by RP-HPLC (Example 10); type: in vitro ADME; conditions: DPP-IV (isolated peptidase); pH 7.5, 37° C., DPP-IV, 22 hr; new species at 3220 mu, loss of the His-Ala dimer; read-out: share hydrolyzed by DPP-IV within 22 hr
Description: (§1) Their stabilities were monitored by RP-HPLC, noting the disappearance of the intact sequence and appearance of a species missing the N terminal dipeptide or similar fragment.

DPP-IV [2] = molecular target: DPP-IV (Homo sapiens, UniProt P27487); test: as above; type: in vitro ADME
Description: as §1

beta TC-6 cell line = test: Insulin release assay (insulin ELISA); type: cell-based, mouse; conditions: for Insulin release: 5 mM glucose, 30 minutes, Beta-TC-6 cells, cells only 1.37-3.67
Description: This was derived from a pancreatic tumor (insulinoma) arising in a transgenic mouse.
Beta-TC-6 cells were purchased from A.T.C.C. (A.T.C.C. number CCL-11506; Manassas, Va., U.S.A.). Beta-TC-6 cells were cultured in Dulbecco's Modified Eagle's medium supplemented with 15% (v/v) heat-inactivated foetal bovine serum, 1% (v/v) glutamine, 0.45% (w/v) glucose and 0.15% (w/v) sodium bicarbonate at 37° C. in a humidified 5% CO2 atmosphere. Beta-TC-6 cells form islands and the monolayer never becomes confluent; cells were passaged at 70% confluence (7 days from seeding) at a subcultivation ratio of 1:4. The monolayer was disrupted from the surface of the culture flask with 0.25% (w/v) Trypsin-0.53 mM EDTA.
Beta-TC-6 cells were cultured in 12 well plates for between 4-8 days prior to use. Cells were cultured in Krebs-Ringer (10 mM Hepes, pH 7.4, 136 mM NaCl, 4.7 mM KCl and 1.25 mM MgSO4) supplemented with 5 mM glucose for 1 hr at 37° C. in a humidified 5% CO2 atmosphere. This medium was removed, cells washed with Krebs-Ringer. Beta-TC-6 cells were then cultured in 1 ml per well of Krebs-Ringer supplemented with 5 mM glucose and 0, 0.12, 0.6, 3 and 15 μM of peptide in duplicate for 30 minutes at 37° C. in a humidified 5% CO2 atmosphere. Medium was removed, diluted 1:5, and insulin concentration determined using an insulin ELISA kit (Mercodia, Uppsala, Sweden) according to the manufacturer's protocol. Beta-TC-6 cells were washed three times with ice-cold PBS and extracted into 0.5 ml lysis buffer (62.5 mM Tris, pH 7.5, and 1%, v/v, SDS) per well. Protein concentration was determined by Lowry assay. […] Only single-sided p values are shown.

[3] = Control study: chemical stability in PBS/triethanolamine without DPP-IV; type: physicochemical; conditions: PBS/triethanolamine solution without DPP-IV, PBS/TEthA, pH 7.5, 37°, no DPP-IV, read-out: percentage of peptide remaining
Description: In the control study, peptides were incubated with PBS/triethanolamine solution in the absence of DPP-IV to measure their chemical stability.

DPP-IV (Homo sapiens, UniProt P27487), sequence (P27487 whole entry, species assumed): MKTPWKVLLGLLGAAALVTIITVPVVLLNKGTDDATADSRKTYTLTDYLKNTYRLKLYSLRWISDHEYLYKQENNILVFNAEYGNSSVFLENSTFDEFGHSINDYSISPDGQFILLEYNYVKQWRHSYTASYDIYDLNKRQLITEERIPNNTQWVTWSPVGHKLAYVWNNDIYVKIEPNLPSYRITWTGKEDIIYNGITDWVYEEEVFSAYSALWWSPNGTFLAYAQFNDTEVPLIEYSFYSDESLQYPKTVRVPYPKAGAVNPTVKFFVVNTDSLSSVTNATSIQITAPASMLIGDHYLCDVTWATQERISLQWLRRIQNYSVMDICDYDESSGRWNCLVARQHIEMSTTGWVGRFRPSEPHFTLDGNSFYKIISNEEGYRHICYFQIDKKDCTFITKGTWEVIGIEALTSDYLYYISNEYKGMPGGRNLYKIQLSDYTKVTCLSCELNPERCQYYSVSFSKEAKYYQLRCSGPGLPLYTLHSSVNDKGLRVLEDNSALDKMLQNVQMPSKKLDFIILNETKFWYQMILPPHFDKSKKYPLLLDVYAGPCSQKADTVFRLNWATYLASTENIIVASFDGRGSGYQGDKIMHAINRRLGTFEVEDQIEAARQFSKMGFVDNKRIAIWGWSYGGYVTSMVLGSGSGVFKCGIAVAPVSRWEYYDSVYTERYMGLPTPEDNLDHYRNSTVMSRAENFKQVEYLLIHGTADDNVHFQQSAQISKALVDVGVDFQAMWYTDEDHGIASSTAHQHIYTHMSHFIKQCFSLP

Compound `CC[C@H](C)[C@H](NC(=O)[C@H](Cc1ccccc1)NC(=O)[C@H](CCC(=O)O)NC(=O)[C@H](CCCCN)NC(=O)[C@H](C)NC(=O)[C@H](C)NC(=O)[C@H](CCC(N)=O)NC(=O)CNC(=O)[C@H](CCC(=O)O)NC(=O)[C@H](CC(C)C)NC(=O)[C@H](Cc1ccc(O)cc1)NC(=O)[C@H](CO)NC(=O)[C@H](CO)NC(=O)[C@@H](NC(=O)[C@H](CC(=O)O)NC(=O)[C@H](CO)NC(=O)[C@@H](NC(=O)[C@H](Cc1ccccc1)NC(=O)[C@@H](NC(=O)CNC(=O)[C@H](CCC(=O)O)NC(=O)CNNC(=O)[C@H](C)NC(=O)[C@@H](N)Cc1c[nH]cn1)[C@@H](C)O)[C@@H](C)O)C(C)C)C(=O)N[C@@H](C)C(=O)N[C@@H](Cc1c[nH]c2ccccc12)C(=O)N[C@@H](CC(C)C)C(=O)N[C@H](C(=O)N[C@@H](CCCCN)C(=O)NCC(=O)N[C@@H](CCCNC(=N)N)C(=O)NCC(=O)O)C(C)C` [SP007, L-His-L-Ala-NH—NH—CH2—C(O)-Glu9-37] has a metabolised at 22 h (DPP-IV [1]) of over 90%, a remaining at 22 h (DPP-IV [2]; DPP-IV (isolated peptidase), PBS/TEthA, pH 7.5, 37°, DPP-IV, 22 hr, read-out: percentage of analogue remaining) of under 5% and a remaining at 47 h (DPP-IV [2]; DPP-IV (isolated peptidase), PBS/TEthA, pH 7.5, 37°, DPP-IV, 47 hr, read-out: percentage of analogue remaining) of under 5%. For the same compound, the “susceptibility to DPP-IV hydrolysis” value (DPP-IV [2]; pH 7.5, 37° C., up to 47 hr) was “susceptible to DPP-IV hydrolysis”, the Insulin release (beta TC-6 cell line; 3 μM peptide) was 4.51 ng/min/mg and the “Activity of 3 μM of each peptide as percentage of insulin release by cells only” value (beta TC-6 cell line; 3 μM peptide, cells alone=100%) was 113 ± 65%. For the same compound, the Insulin release (beta TC-6 cell line; 15 μM peptide) was 8.08 ng/min/mg, the “Activity of 15 μM of each peptide as percentage of insulin release by cells only” value (beta TC-6 cell line; 15 μM peptide, cells alone=100%) was 235 ± 91% and the remaining at 22 h ([3]; 22 hr) was 95%. For the same compound, the remaining at 47 h ([3]; 47 hr) was 95%.
